Data set [1] deals with α-glucosidase (yeast-derived reagent). Put plainly: α-Glucosidase inhibitory activity (maltose substrate). The data set is classed as biochemical. To be noted: for IC50: yeast-derived α-glucosidase, maltose substrate, 37° C., 60 minutes, read-out: 50% α-glucosidase inhibition concentration. How it is done:
A yeast-derived reagent (Wako Pure Chemical) was used as an α-glucosidase. The reagent was dissolved in 10 mM phosphate buffer (pH 7.0) containing 0.2% bovine serum albumin.
In the experiment, 0.25 mL of 100 mM phosphate buffer, 0.25 mL of each sample solution at a different concentration, and 0.125 mL of a maltose aqueous solution serving as a substrate at a concentration of 10 mg/mL were mixed, followed by heating at 37° C. for 5 minutes. Then, 0.125 mL of an α-glucosidase solution was added thereto, followed by enzyme treatment at 37° C. for 60 minutes. As a reaction termination solution, 0.5 mL of a 0.2 M sodium carbonate solution was added to each resultant, followed by mixing. The glucose concentration of each reaction solution was measured using Glucose CII-Test Wako (Wako Pure Chemical). An inhibition rate (%) was calculated based on a proportion of the glucose concentration of a solution to which a sample had been added to the glucose concentration of a blank solution to which no sample had been added. Then, the concentration of each sample at which 50% enzyme activity was inhibited was calculated based on such inhibition rate derived from the concentration of the sample, followed by comparison.

The nature of data set [2]: Antioxidative activity measurement by DPPH radical scavenging. The class given is biochemical. The conditions noted are these: for DPPH radical 50% scavenging concentration: 30° C., 30 minutes, absorbance at 517 nm; for radical scavenging activity compared with α-tocopherol: DPPH reagent, result in words. How it is done:
Antioxidative activity was evaluated with the use of a stable-radical diphenyl-p-picrylhydradil (DPPH)/ethanol solution. 400 μl of a sample/methanol solution was mixed with 1600 μl of 250 mM acetate buffer (pH=5.5) and 1200 μl of ethanol, at a different concentration, followed by preincubation at 30° C. for 5 minutes. Then, 800 μl of a 500 μM DPPH/ethanol solution was added to each resulting solution, followed by mixing. Each resultant was allowed to stand at 30° C. for 30 minutes, followed by measurement of absorbance at 517 nm. α-tocopherol was also subjected to the same operation. The obtained solution was thus designated as a positive control. A blank solution used was prepared by the same operation with the use of methanol instead of a sample solution. Based on absorbances measured, radical scavenging rates were calculated based on the following equation. Scavenging rate(%)=(1−[Absorbance of a sample]/[Absorbance of a blank])×100 [Equation 1]
The concentration of a sample solution was changed stepwise for the measurement of the aforementioned scavenging rate. As a result, the concentration of a sample solution at which the DPPH radical scavenging rate was 50% was obtained so as to be designated as the DPPH radical 50% scavenging concentration. The lower such value, the higher the radical scavenging capacity.

For data set [3] the following is noted: result in words; cited from earlier work.

On to `O=c1c(OC2OC(CO)C(O)C(O)C2O)c(-c2ccc(O)c(O)c2)oc2cc(O)cc(O)c12` (centres unmarked) [Isoquercitrin, quercetin-3-glucoside, reference compound], for which the IC50 in data set [1] stood at 727 µM.

`Cc1c(C)c2c(c(C)c1O)CC[C@@](C)(CCC[C@H](C)CCC[C@H](C)CCCC(C)C)O2` [α-tocopherol, reference compound]: the “DPPH radical 50% scavenging concentration” value in data set [2] is listed as 0.127 mg/mL. The solubility in water entry in data set [3] is “insoluble in water”.

On to `O=C1c2c(O)cc(O)cc2O[C@H](c2ccc(O)c(O)c2)[C@H]1O` [Taxifolin, taxifolin, reference compound], for which the IC50 in data set [1] came out at 892 µM.

As to `OCC1OC2O[C@@H]3[C@@H](c4ccc(O)c(O)c4)Oc4cc(O)cc(O)c4[C@@H]3OC2C(O)C1O` (stereo in doubt) [Product of the present invention], in data set [2], the “DPPH radical 50% scavenging concentration” value was determined as 0.080 mg/mL and the “radical scavenging activity compared with α-tocopherol” value is “comparable to or exceeding that of α-tocopherol”. For the same molecule, the “radical scavenging activity compared with α-tocopherol” value in data set [2] (listed as novel polyphenol glycoside of the present invention) is “almost comparable to that of α-tocopherol”. Besides, in data set [1] (result in words), the “glucosidase inhibitory activity compared with isoquercitrin” value is listed as “several times stronger than that of isoquercitrin” and the “glucosidase inhibitory activity compared with taxifolin” value is “several times stronger”. In addition, the “glucosidase inhibitory activity compared with taxifolin” value in data set [1] (result in words, listed as polyphenol glycoside of the present invention) was “several times stronger than that of taxifolin”. For the same molecule, in data set [1], the IC50 was 164 µM.

(Values after US7935673B2, “Polyphenol glycoside isolated from acerola” (Nichirei Biosciences, Inc., priority 2004, dated 2011).)
